Earlier results as cited in US20190216738A1, “PIRFENIDONE-CONTAINING TABLET AND CAPSULE FORMULATION” (Laurus Labs Ltd, priority 2018, published 2019).

solubility (1.0 N HCl, water and 1.0 N NaOH): sparingly soluble
dissolution in water (solubility) (water, 25° C., pH independent): 19 mg/mL
Compound: Cc1ccc(=O)n(-c2ccccc2)c1 [Pirfenidone]
